Test results published in publication PMC12684325, “SiR‐XActin: A Fluorescent Probe for Imaging Actin Dynamics in Live Cells” (Angewandte Chemie (International Ed. in English), 2025).

System: T1, F-actin
T1 construct: gene ACTB; F-actin filaments
Assay: microscopy-based apparent affinity measurement for F-actin (fluorescent probe; fixed-cell staining)

SiR-XActin [compound 8]
Kd: 0.557 µM

SiR-actin [compound 2]
Kd: 0.006 µM
